We go through 13 compounds from patent publication US20140011676A1, “1, 8 -DIAZASPIRO [4.5] DECANE- 2, 4 -DIONE DERIVATIVES USEFUL AS PESTICIDES” (SYNGENTA PARTICIPATIONS AG, priority 2010, published 2014).

SMILES strings stand for the structures. Read-outs that look alike come from different tables or passages of the source.

Data set [1] relates to Tetranychus urticae (two-spotted spider mite). Briefly: whole plant or invertebrate. The settings on record: foliar, 192 h, read-out: activity (egg, larval and adult mortality) against Tetranychus urticae.
The subject of data set [2] is Myzus persicae (green peach aphid). To be noted: foliar, 144 h, read-out: activity (mortality) against Myzus persicae.
Another data set deals with cabbage plants. The settings on record: in vivo, 6 days, 200 ppm.
For data set [3], the system named is Thrips tabaci (onion thrips). To be noted: foliar, 144 h, read-out: activity (mortality) against Thrips tabaci.
In data set [4] the test system is Myzus persicae (green peach aphid). Briefly: Activity against Myzus persicae on cabbage plants, feeding/residual contact activity, spray chamber. Type of data set: in vivo. To be noted: 144 h, 6 days after treatment.
For data set [5] the test system is unchanged. Description: Activity against Myzus persicae, mixed population, systemic/feeding activity, curative (pea seedlings). The settings on record: 144 h, read-out: activity (mortality) against Myzus persicae, systemic.

One may read the mortality as the percentage killed. For the compound `CON1CCC2(CC1)C(=O)C(Cl)(c1cc(C)c(C)cc1Cl)C(=O)N2C` (stereo not shown) [Compound P1.1, 3-Chloro-3-(2-chloro-4,5-dimethyl-phenyl)-8-methoxy-1-methyl-1,8-diaza-spiro[4.5]decane-2,4-dione], the mortality at 400 ppm in data set [1] and in data set [2] was above 80% throughout.

Turning to `CON1CCC2(CC1)C(=O)C(Cl)(c1cc(Br)c(C)cc1C)C(=O)N2C` (stereo not shown) [Compound P1.2], the “damage to cabbage plants (phytotoxicity)” value in the data set with cabbage plants is at most 10%. Moreover, the mortality at 400 ppm in data set [3] and in data set [2] was above 80% throughout. Also, the mortality at 200 ppm in data set [4] is at least 80%.

`CON1CCC2(CC1)C(=O)C(Cl)(c1c(C)cc(Br)cc1C)C(=O)N2C` (stereo not shown) [Compound P1.3]: the mortality at 400 ppm in data set [5] and in data set [2] was above 80% in each case. In the data set on cabbage plants, the “damage to cabbage plants (phytotoxicity)” value was at most 10%. This compound had a mortality at 200 ppm in data set [4] of at least 80%.

In the case of `CON1CCC2(CC1)C(=O)C(Cl)(c1c(C)cc(C)cc1C)C(=O)N2C` (stereo not shown) [Compound P1.4], the mortality at 400 ppm in data set [5], in data set [3] and in data set [2] was above 80% each time. In the data set on cabbage plants, the “damage to cabbage plants (phytotoxicity)” value was at most 10%. In data set [4], this compound returned a mortality at 200 ppm of at least 80%.

As for `CON1CCC2(CC1)C(=O)C(Cl)(c1cc(C)ccc1C)C(=O)N2C` (stereo not shown) [Compound P1.5, 3-Chloro-3-(2,5-dimethyl-phenyl)-8-methoxy-1-methyl-1,8-diaza-spiro[4.5]decane-2,4-dione], in the data set with cabbage plants, the “damage to cabbage plants (phytotoxicity)” value is on record as at most 10%. This compound also showed a mortality at 200 ppm in data set [4] of at least 80%.

As for `CON1CCC2(CC1)C(=O)C(Cl)(c1cc(C)c(C)cc1C)C(=O)N2CC1CC1` (stereo not shown) [Compound P1.6], the “damage to cabbage plants (phytotoxicity)” value in the data set with cabbage plants is on record as at most 10%. In data set [4], the mortality at 200 ppm is at least 80%.

Take `CON1CCC2(CC1)C(=O)C(Cl)(c1c(C)cccc1C)C(=O)N2C` (stereo not shown) [Compound P1.7]: in data set [5], the mortality at 400 ppm is above 80%. The “damage to cabbage plants (phytotoxicity)” value in the data set on cabbage plants is listed as at most 10%. This compound showed a mortality at 200 ppm in data set [4] of at least 80%.

`CON1CCC2(CC1)C(=O)C(Cl)(c1c(C)cc(C)cc1C)C(=O)N2CC1CCCO1` (stereo not shown) [Compound P1.8]: the “damage to cabbage plants (phytotoxicity)” value with cabbage plants was at most 10%. Also, the mortality at 200 ppm in data set [4] is at least 80%.

One may read the melting point as the temperature of the solid-liquid transition. As for `COc1cc(Cl)cc(C)c1C1(Cl)C(=O)N(C)C2(CCN(OC)CC2)C1=O` (stereo not shown) [Compound P1.10], the melting point lay within 115 to 117 °C.

Regarding `CCc1cc(Cl)cc(C)c1C1(Cl)C(=O)N(C)C2(CCN(OC)CC2)C1=O` (stereo not shown) [Compound P1.11], the “damage to cabbage plants (phytotoxicity)” value with cabbage plants is recorded as at most 10%. For the same compound, the mortality at 400 ppm in data set [2] was above 80%. The same compound had a mortality at 200 ppm in data set [4] of at least 80%.

As to `CON1CCC2(CC1)C(=O)C(Cl)(c1c(C)ccc(-c3ccc(Cl)cc3)c1C)C(=O)N2C` (stereo not shown) [Compound P1.12], in the data set on cabbage plants, the “damage to cabbage plants (phytotoxicity)” value was at most 10%. Also, the mortality at 400 ppm in data set [2] is above 80%. This compound also registered a mortality at 200 ppm in data set [4] of at least 80%.

As for `CON1CCC2(CC1)C(=O)C(c1c(C)cc(C)cc1C)([N+](=O)[O-])C(=O)N2C` (stereo not shown) [Compound P1.13, 8-Methoxy-1-methyl-3-nitro-3-(2,4,6-trimethyl-phenyl)-1,8-diaza-spiro[4.5]decane-2,4-dione], the “damage to cabbage plants (phytotoxicity)” value in the data set with cabbage plants was at most 10%. In addition, in data set [2], the mortality at 400 ppm was above 80%. This compound gave a mortality at 200 ppm in data set [4] of at least 80%.

Regarding `COCCN1C(=O)C(Cl)(c2c(C)cc(Cl)cc2C)C(=O)C12CCN(OC)CC2` (stereo not shown) [Compound P1.14], the “damage to cabbage plants (phytotoxicity)” value with cabbage plants is given as at most 10%. Moreover, the mortality at 400 ppm in data set [2] was above 80%. Also, the mortality at 200 ppm in data set [4] is at least 80%.
